ChEMBL document CHEMBL1212697, “High-content single-cell drug screening with phosphospecific flow cytometry” (Nat Chem Biol, 2008)
Each block holds one compound with its values, some of them ahead of it. Calls of active or inactive are those of the source. No cut-off for these calls is given here.

Key:
[1] = Inhibition of JAK-mediated IL10-induced Stat3 phosphorylation in BALB/c mouse B cells by Phospho-Flow cytometry; assay type: cell-based
MAP kinase p38 = MAP kinase p38 (Homo sapiens, UniProt O15264+Q15759+Q16539+P53778); assay: Inhibition of anisomycin-induced p38 phosphorylation in human U937 cells by Phospho-Flow cytometry at 20 uM; assay type: cell-based; settings: U-937
[2] = Inhibition of JAK-mediated IL7-induced Stat5 phosphorylation in BALB/c mouse CD11b-int macrophages by Phospho-Flow cytometry
[3] = Inhibition of JAK-mediated IL4-induced Stat6 phosphorylation in BALB/c mouse CD4+ T cells by Phospho-Flow cytometry; assay type: cell-based; settings: T-cell
[4] = Inhibition of JAK-mediated IL10-induced Stat3 phosphorylation in BALB/c mouse CD11b-hi neutrophils by Phospho-Flow cytometry
[5] = Inhibition of JAK-mediated IL6-induced Stat1 phosphorylation in BALB/c mouse CD11b-int macrophages by Phospho-Flow cytometry
[6] = Inhibition of JAK-mediated interferon-gamma-induced Stat1 phosphorylation in BALB/c mouse CD11b-int macrophages by Phospho-Flow cytometry
[7] = Inhibition of JAK-mediated IL6-induced Stat3 phosphorylation in BALB/c mouse CD11b-hi neutrophils by Phospho-Flow cytometry
[8] = Inhibition of JAK-mediated IL6-induced Stat3 phosphorylation in BALB/c mouse CD11b-int macrophages by Phospho-Flow cytometry
Mus musculus [9] = species on record: Mus musculus; assay: Inhibition of JAK-mediated IL4-induced Stat6 phosphorylation in BALB/c mouse CD8+ Tcells by Phospho-Flow cytometry
B [10] = assay: Inhibition of JAK-mediated IL4-induced Stat6 phosphorylation in BALB/c mouse B cells at 10 uM by Western blotting analysis; assay type: cell-based
[11] = Inhibition of JAK-mediated IL10-induced Stat3 phosphorylation in BALB/c mouse CD11b-int macrophages by Phospho-Flow cytometry
[12] = Inhibition of JAK-mediated IL15-induced Stat5 phosphorylation in BALB/c mouse CD8+ T cells by Phospho-Flow cytometry; assay type: cell-based; settings: T-cell
[13] = Inhibition of JAK-mediated IL7-induced Stat5 phosphorylation in BALB/c mouse B cells by Phospho-Flow cytometry; assay type: cell-based
[14] = Inhibition of JAK-mediated IL4-induced Stat5 phosphorylation in BALB/c mouse CD11b-int macrophages by Phospho-Flow cytometry
[15] = target: T1, Janus Kinase (JAK) (Homo sapiens) (UniProt P52333+P23458+O60674+P29597); assay: Inhibition of JAK-mediated interferon-gamma-induced Stat1 phosphorylation in human U937 cells by Phospho-Flow cytometry at 20 uM; assay type: cell-based; settings: U-937
[16] = Inhibition of JAK-mediated IL15-induced Stat5 phosphorylation in BALB/c mouse CD11b-hi neutrophils by Phospho-Flow cytometry
[17] = Inhibition of JAK-mediated IL4-induced Stat6 phosphorylation in BALB/c mouse B cells by Phospho-Flow cytometry; assay type: cell-based
[18] = Inhibition of JAK-mediated IL6-induced Stat1 phosphorylation in BALB/c mouse CD4+ T cells by Phospho-Flow cytometry; assay type: cell-based; settings: T-cell
[19] = Inhibition of JAK-mediated IL10-induced Stat3 phosphorylation in BALB/c mouse CD4+ T cells by Phospho-Flow cytometry; assay type: cell-based; settings: T-cell
[20] = Inhibition of JAK-mediated IL6-induced Stat1 phosphorylation in BALB/c mouse CD11b-hi neutrophils by Phospho-Flow cytometry
[21] = Inhibition of JAK-mediated IL15-induced Stat5 phosphorylation in BALB/c mouse CD4+ T cells by Phospho-Flow cytometry; assay type: cell-based; settings: T-cell
[22] = Inhibition of JAK-mediated IL7-induced Stat5 phosphorylation in BALB/c mouse CD4+ T cells by Phospho-Flow cytometry; assay type: cell-based; settings: T-cell
[23] = Inhibition of JAK-mediated interferon-gamma-induced Stat1 phosphorylation in BALB/c mouse B cells by Phospho-Flow cytometry; assay type: cell-based
[24] = Inhibition of JAK-mediated IL4-induced Stat5 phosphorylation in BALB/c mouse CD4+ T cells by Phospho-Flow cytometry; assay type: cell-based; settings: T-cell
[25] = Inhibition of JAK-mediated IL6-induced Stat3 phosphorylation in BALB/c mouse CD8+ T cells by Phospho-Flow cytometry; assay type: cell-based; settings: T-cell
[26] = Inhibition of JAK-mediated IL6-induced Stat1 phosphorylation in BALB/c mouse CD8+ T cells by Phospho-Flow cytometry; assay type: cell-based; settings: T-cell
[27] = Inhibition of JAK-mediated IL4-induced Stat5 phosphorylation in BALB/c mouse B cells by Phospho-Flow cytometry; assay type: cell-based
[28] = Inhibition of JAK-mediated IL10-induced Stat3 phosphorylation in BALB/c mouse CD8+ T cells by Phospho-Flow cytometry; assay type: cell-based; settings: T-cell
[29] = Inhibition of JAK-mediated IL15-induced Stat5 phosphorylation in BALB/c mouse CD11b-int macrophages by Phospho-Flow cytometry
[30] = Inhibition of JAK-mediated IL6-induced Stat3 phosphorylation in BALB/c mouse CD4+ T cells by Phospho-Flow cytometry; assay type: cell-based; settings: T-cell
[31] = Inhibition of JAK-mediated interferon-gamma-induced Stat1 phosphorylation in BALB/c mouse CD4+ T cells by Phospho-Flow cytometry; assay type: cell-based; settings: T-cell
[32] = Inhibition of JAK-mediated IL7-induced Stat5 phosphorylation in BALB/c mouse CD8+ T cells by Phospho-Flow cytometry; assay type: cell-based; settings: T-cell
[33] = Inhibition of JAK-mediated IL4-induced Stat6 phosphorylation in BALB/c mouse CD11b-int macrophages by Phospho-Flow cytometry
[34] = target: T1, Janus Kinase (JAK) (Homo sapiens); assay: Inhibition of JAK-mediated GM-CSF-induced Stat5 phosphorylation in human U937 cells by Phospho-Flow cytometry at 20 uM; assay type: cell-based; settings: U-937
B [35] = assay: Inhibition of JAK-mediated IL10-induced Stat3 phosphorylation in BALB/c mouse B cells at 1 uM by Western blotting analysis; assay type: cell-based
[36] = Inhibition of JAK-mediated IL4-induced Stat6 phosphorylation in BALB/c mouse CD8+ T cells by Phospho-Flow cytometry; assay type: cell-based; settings: T-cell
[37] = Inhibition of JAK-mediated IL6-induced Stat1 phosphorylation in BALB/c mouse B cells by Phospho-Flow cytometry; assay type: cell-based
[38] = Inhibition of JAK-mediated IL7-induced Stat5 phosphorylation in BALB/c mouse CD11b-hi neutrophils by Phospho-Flow cytometry
B [39] = assay: Inhibition of JAK-mediated IL4-induced Stat5 phosphorylation in BALB/c mouse B cells at 1 uM by Western blotting analysis; assay type: cell-based
[40] = Inhibition of JAK-mediated IL6-induced Stat3 phosphorylation in BALB/c mouse B cells by Phospho-Flow cytometry; assay type: cell-based
Mus musculus [41] = species on record: Mus musculus; assay: Inhibition of JAK-mediated IL4-induced Stat6 phosphorylation in BALB/c mouse CD11b-hi neutrophils by Phospho-Flow cytometry
[42] = Inhibition of JAK-mediated IL15-induced Stat5 phosphorylation in BALB/c mouse B cells by Phospho-Flow cytometry; assay type: cell-based
[43] = Inhibition of JAK-mediated IL4-induced Stat5 phosphorylation in BALB/c mouse CD8+ T cells by Phospho-Flow cytometry; assay type: cell-based; settings: T-cell
[44] = Inhibition of JAK-mediated interferon-gamma-induced Stat1 phosphorylation in BALB/c mouse CD11b-hi neutrophils by Phospho-Flow cytometry
[45] = Inhibition of JAK-mediated IL4-induced Stat5 phosphorylation in BALB/c mouse CD11b-hi neutrophils by Phospho-Flow cytometry
B [46] = assay: Inhibition of JAK-mediated interferon-gamma-induced Stat1 phosphorylation in BALB/c mouse B cells at 3.5 uM by Phospho-Flow cytometry; assay type: cell-based
Mus musculus [47] = assay: In vivo inhibition of JAK-mediated IL4-induced Stat6 phosphorylation in blood cells in BALB/c mouse at 1 to 10 mg/kg, iv administered 30 mins before IL challenge for 15 mins; assay type: functional, organism-based
Mus musculus [48] = assay: In vivo inhibition of JAK-mediated IL4-induced Stat6 phosphorylation in spleen cells in BALB/c mouse at 1 to 10 mg/kg, iv administered 30 mins before IL challenge for 15 mins; assay type: functional, organism-based
T-cell = assay: Inhibition of JAK-mediated interferon-gamma-induced Stat1 phosphorylation in BALB/c mouse CD4+ T cells at 100 uM by Phospho-Flow cytometry; assay type: cell-based
Mus musculus [49] = assay: In vivo inhibition of JAK-mediated IL6-induced Stat3 phosphorylation in spleen cells in BALB/c mouse at 1 to 10 mg/kg, iv administered 30 mins before IL challenge for 15 mins; assay type: functional, organism-based
Mus musculus [50] = assay: In vivo inhibition of JAK-mediated IL6-induced Stat3 phosphorylation in blood cells in BALB/c mouse at 1 to 10 mg/kg, iv administered 30 mins before IL challenge for 15 mins; assay type: functional, organism-based

IC50 [1]: 1 µM | inhibition (MAP kinase p38): 25% | IC50 [2]: < 20 µM | IC50 [3]: < 20 µM | IC50 [4]: < 20 µM | IC50 [5]: < 20 µM | IC50 [6]: < 20 µM | IC50 [7]: < 20 µM | IC50 [8]: < 20 µM | inhibition (Mus musculus [9]): Dose-dependent effect | IC50 [11]: < 20 µM | IC50 [12]: < 20 µM | IC50 [13]: < 20 µM | IC50 [14]: < 20 µM | inhibition [15]: 25% | IC50 [16]: < 20 µM | IC50 [17]: 16 µM | IC50 [18]: < 20 µM | IC50 [19]: < 20 µM | IC50 [20]: < 20 µM | IC50 [21]: < 20 µM | IC50 [22]: < 20 µM | IC50 [23]: < 20 µM | IC50 [24]: < 20 µM | IC50 [25]: < 20 µM | IC50 [26]: < 20 µM | IC50 [27]: 1 µM | IC50 [28]: < 20 µM | IC50 [29]: < 20 µM | IC50 [30]: < 20 µM | IC50 [31]: < 20 µM | IC50 [32]: < 20 µM | IC50 [33]: < 20 µM | inhibition [34]: Active | IC50 [36]: < 20 µM | IC50 [37]: < 20 µM | IC50 [38]: < 20 µM | IC50 [40]: < 20 µM | inhibition (Mus musculus [41]): Dose-dependent effect | IC50 [42]: < 20 µM | IC50 [43]: < 20 µM | IC50 [44]: < 20 µM | IC50 [45]: < 20 µM
Compound: C=C1C(=O)O[C@H]2C[C@@H]1[C@@H](OC(C)=O)C/C(C)=C/CC/C(C)=C\CC[C@@]2(C)O [CRASSIN]
inhibition (B [10]): Active | inhibition (B [35]): Active | inhibition (B [39]): Active

IC50 [1]: < 20 µM | inhibition (MAP kinase p38): 25% | IC50 [2]: < 20 µM | IC50 [3]: < 20 µM | IC50 [4]: < 20 µM | IC50 [5]: < 20 µM | IC50 [6]: < 20 µM | IC50 [7]: < 20 µM | IC50 [8]: < 20 µM | IC50 [11]: < 20 µM | IC50 [12]: < 20 µM | IC50 [13]: < 20 µM | IC50 [14]: < 20 µM | inhibition [15]: > 65% | IC50 [16]: < 20 µM | IC50 [18]: < 20 µM | IC50 [19]: < 20 µM | IC50 [20]: < 20 µM | IC50 [21]: < 20 µM | IC50 [22]: < 20 µM | IC50 [23]: < 20 µM | IC50 [24]: < 20 µM | IC50 [25]: < 20 µM | IC50 [26]: < 20 µM | IC50 [27]: < 20 µM | IC50 [28]: < 20 µM | IC50 [29]: < 20 µM | IC50 [30]: < 20 µM | IC50 [31]: < 20 µM | IC50 [32]: < 20 µM | IC50 [33]: < 20 µM | inhibition [34]: 25% | IC50 [36]: < 20 µM | IC50 [37]: < 20 µM | IC50 [38]: < 20 µM | IC50 [40]: < 20 µM | IC50 [42]: < 20 µM | IC50 [43]: < 20 µM | IC50 [44]: < 20 µM | IC50 [45]: < 20 µM
Compound: COC1=C(N)C(=O)c2nc(-c3nc(C(=O)O)c(C)c(-c4ccc(OC)c(OC)c4O)c3N)ccc2C1=O [STREPTONIGRIN]
inhibition (B [46]): Active | inhibition (Mus musculus [47]): Active | inhibition (Mus musculus [48]): Active | inhibition (T-cell): < 50% | inhibition (Mus musculus [49]): Active | inhibition (Mus musculus [50]): Active
